These results are taken from patent publication US20070197509A1, “Compositions and methods for modulating gated ion channels” (PainCeptor Pharma Corporation, priority 2005, published 2007).

The target in the assay is T1, hASIC3 (Homo sapiens, UniProt Q9UHC3).
T1 sequence (Q9UHC3 1-531): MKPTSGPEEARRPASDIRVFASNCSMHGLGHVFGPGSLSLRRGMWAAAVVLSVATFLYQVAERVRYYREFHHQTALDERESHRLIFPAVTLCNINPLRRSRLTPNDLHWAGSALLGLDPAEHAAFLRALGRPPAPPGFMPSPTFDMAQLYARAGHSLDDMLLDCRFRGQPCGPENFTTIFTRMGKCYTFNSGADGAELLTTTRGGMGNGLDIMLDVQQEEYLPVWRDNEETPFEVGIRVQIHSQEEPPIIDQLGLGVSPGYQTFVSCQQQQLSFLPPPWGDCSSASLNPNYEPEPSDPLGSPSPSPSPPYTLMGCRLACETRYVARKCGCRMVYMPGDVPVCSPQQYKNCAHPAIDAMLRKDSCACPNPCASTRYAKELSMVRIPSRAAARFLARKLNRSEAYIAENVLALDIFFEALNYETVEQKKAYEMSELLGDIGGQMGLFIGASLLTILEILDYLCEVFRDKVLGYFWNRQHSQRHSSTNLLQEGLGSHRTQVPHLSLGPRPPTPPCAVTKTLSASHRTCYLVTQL
Briefly: FlexStation assay on HEK293 cells expressing hASIC3. The assay is classed as cell-based. Also on record: expressed in transfected cells; host or cells: HEK293 cells. The following applies: FlexStation (Flex), Tables A-F; read-out: Biological Data (IC50 uM) h3 (Flex).

Turning to `Cc1cc(OC2CCN(Cc3ccccc3)CC2)c2ccccc2n1` [Compound R, 4-(1-benzyl-piperidin-4-yloxy)-2-methyl-quinoline], the IC50 lay within 5 to 15 µM.

As usually defined, the IC50 is the concentration that gives 50% inhibition.
